Reference: ChEMBL document CHEMBL1156829 (Proc Natl Acad Sci U S A, 2008)

Experiments:
Plasmodium falciparum [1] = test: NOVARTIS: Inhibition of Plasmodium falciparum W2 (drug-resistant) proliferation in erythrocyte-based infection assay; assay type: functional, organism-based; settings: Plasmodium falciparum, W2; read-out: EC50
Plasmodium falciparum [2] = test: NOVARTIS: Inhibition of Plasmodium falciparum 3D7 (drug-susceptible) proliferation in erythrocyte-based infection assay; assay type: functional, organism-based; settings: Plasmodium falciparum, 3D7
[3] = NOVARTIS: Cytotoxicity against human hepatocellular carcinoma cell line (Huh7); assay type: toxicity, cell-based, Huh-7; settings: Huh7 cells (hepatocellular carcinoma cell line)

SMILES | EC50 (Plasmodium falciparum [1]) [nM] | EC50 (Plasmodium falciparum [2]) [nM] | CC50 [3] [nM]
N=c1n(Cc2ccccc2)c2ccccc2n1CC(O)c1ccc(Cl)cc1 (configuration not stated) | 50.6 | 257 | 11100
CC(=NNC(N)=S)C(C)=NNC(N)=S | 462 | 572 | > 100000
CCC(c1nc2ccccc2c(=O)n1-c1cccc(C)c1)N(Cc1ccccc1)C(=O)Nc1c(C(C)C)cccc1C(C)C (configuration not stated) | 486 | 395 | > 100000
CCc1nc2nc(C)cc(NCCc3cccc(C)c3)n2n1 | 453 | 334 | > 100000
COc1ccc(-c2c(C(F)(F)F)nn(C)c2NC(=O)Nc2ccc(F)cc2F)cc1 | 356 | 242 | 78200
CN(C)CCCn1c(N)c(-c2nc3ccccc3[nH]2)c2nc(C#N)c(C#N)nc21 | 274 | 463 | 60200
COc1ccc(C2CC(=O)C3=C(C2)NC(C)=C(C(=O)OC(C)C)C3c2ccccc2F)cc1OC (configuration not stated) | 33.2 | 34.7 | 7320
CC(C)CCNCC(O)Cn1c2ccc(Cl)cc2c2cc(Cl)ccc21 (configuration not stated) | 96.6 | 192 | 20600
CCOc1ccc(-c2nonc2NC(=O)c2ccco2)cc1OCC | 481 | 590 | > 100000
Cn1nc(C(F)(F)F)c(-c2ccc(Br)cc2)c1NC(=O)Nc1ccc(F)cc1F | 206 | 212 | 42800
N=c1ccn(CC(=O)N2CCCc3ccccc32)c2ccccc12 | 453 | 1490 | > 100000
NNC(=O)CNC(c1ccccc1)c1cc(Br)ccc1NC(=O)c1ccccc1Br (configuration not stated) | 453 | 342 | > 100000
CC(C)NC(=O)c1ccc(OC2CCN(CC3CCCCC3)CC2)c(Cl)c1 | 298 | 476 | 65900
O=C(NCCCCCCCCNC(=O)Nc1ccc(C2=NCCN2)cc1)Nc1ccc(C2=NCCN2)cc1 | 45.9 | 85.4 | > 10000
COc1cc(OC)cc(C(=O)NCc2n[nH]c(=S)n2-c2cccc(Cl)c2)c1 | 450 | 565 | > 100000
CCOC(=O)c1nnn(-c2nonc2N)c1-c1ccc(OC)c(OC)c1 | 450 | 513 | > 100000
Cc1nnc(SCC(=O)NCc2ccco2)n1-c1ccc(F)cc1 | 459 | > 8950 | > 100000
Oc1ccc(-c2cnccn2)cc1CNC1CCN(Cc2ccccc2)CC1 | 380 | 385 | 82800
COc1ccc(-c2nc(-c3ccncc3)cnc2N)cc1OC | 45.7 | 35.8 | > 10000
O=C(Nc1ccc(C23CC4CC(CC(c5ccccc5)(C4)C2)C3)cc1)c1cccs1 | 468 | 645 | > 100000
COc1cc(NC(C)CCCN(Cc2ccccc2OC)C(=O)c2ccc(Cl)c([N+](=O)[O-])c2)c2ncccc2c1 (configuration not stated) | < 18.2 | 1200 | > 3910
O=C(Nc1nc2ccccc2s1)c1ccc(S(=O)(=O)N2CCOCC2)cc1 | > 46.1 | > 1250 | > 10000
CC(=O)N(C1=C(N2CCCCC2)C(=O)c2ccccc2C1=O)c1cccc(F)c1 | 109 | 146 | 23700
Cc1ccc(-c2nn(-c3ccccc3)c3[nH]c(=O)c(CNCc4ccccc4)cc23)cc1 | 467 | 1610 | > 100000
CC(C)CCNCC(O)Cn1c2ccc(Br)cc2c2cc(Br)ccc21 (configuration not stated) | 88.5 | 270 | 19000
N=c1n(Cc2ccccc2)c2ccccc2n1CC(O)c1ccc(Br)cc1 (configuration not stated) | 101 | 254 | 21800
CCN1CC=C2C(C#N)=C(N)C(C#N)(C#N)[C@H](c3ccc(C)s3)[C@H]2C1 | 464 | 1680 | > 100000

SMILES | EC50 (Plasmodium falciparum [1]) [nM] | EC50 (Plasmodium falciparum [2]) [nM] | CC50 [3] [nM]
CCOC(=O)C1CCN(C(=O)c2c(C)oc3c2C(=O)c2ccccc2C3=O)CC1 | 103 | 201 | 22200
COc1cc2ncnc(NC3CCN(Cc4ccccc4)CC3)c2cc1OC | 485 | 400 | > 100000
O=C(Nc1c2ccccc2nc2ccccc12)c1cc(Cl)ccc1O | 484 | 1130 | > 100000
S=P(OCC1C(COP(=S)(c2ccccc2)c2ccccc2)C1(Cl)Cl)(c1ccccc1)c1ccccc1 (configuration not stated) | 484 | 385 | > 100000
C=CC1CN2CCC1CC2C(OC(=O)C1CC1)c1ccnc2ccccc12 (configuration not stated) | 199 | 84.7 | 42200
O=C1C(Nc2ccc(Cl)cc2)=C(N2CCCCC2)C(=O)c2ccccc21 | 250 | 319 | 53200
OC(CNCC1CCCO1)Cn1c2ccc(Br)cc2c2cc(Br)ccc21 (configuration not stated) | 99 | 261 | 20300
COc1ccc(C(Cc2ccccc2)NC2CN3CCC2CC3)cc1 (configuration not stated) | 308 | 4260 | > 65000
CCOc1ccc(NC(=O)CSc2nncc(O)n2)cc1 | 473 | 859 | > 100000
Cc1ccc(C(=O)NC2CCN(S(=O)(=O)c3c(C)cc(C)cc3C)CC2)cc1 | 472 | 1440 | > 100000
CC(=O)N(C1=C(N2CCCC2)C(=O)c2ccccc2C1=O)c1ccc(I)cc1 | 224 | 553 | 47000
Cc1ccn2c(NC(C)(C)CC(C)(C)C)c(-c3ccccc3OC(=O)c3ccc(C)c([N+](=O)[O-])c3)nc2c1 | 47.7 | 744 | > 10000
O=C(ON=C(c1ccncc1)c1ccc(Cl)cc1)c1ccccc1 | > 48 | 1240 | > 10000
CC(=O)N(C1=C(N2CCN(C)CC2)C(=O)c2ccccc2C1=O)c1cc(C)cc(C)c1 | 61.2 | 67 | 12600
COc1ccc(OC)c(C2CC(=O)N3CN(Cc4ccccc4)CSC3=C2C#N)c1 (configuration not stated) | 482 | 638 | > 100000
Clc1ccc2c(c1)c1cc(Cl)ccc1n2CC1CO1 (configuration not stated) | 277 | 341 | 57400
CC(=O)Nc1ccc(NS(=O)(=O)c2cc([N+](=O)[O-])ccc2Cl)cc1 | 475 | > 12500 | > 100000
O=C1C2C(C(=O)N1c1ccc(F)cc1)C1(c3ccccc3)C(=O)C2(c2ccccc2)C(c2ccccc2)=C1c1ccccc1 (configuration not stated) | 474 | 563 | > 100000
COc1ccc(C2CC(=O)C3=C(C2)NC(C)=C(C(=O)OC2CCCC2)C3c2cccc(Cl)c2)cc1OC (configuration not stated) | 75.8 | 201 | 16800
CCOC(=O)C1=C(CC)NC2=C(C(=O)CCC2)C1c1ccc(OC)c(Br)c1 (configuration not stated) | 387 | 1070 | > 83800
CCCCCCCC(O)(c1ccc(OCC)cc1)C(CN1CCCCC1)c1ccccc1 (configuration not stated) | 456 | 1180 | > 100000
OC(Cn1cnc(-c2ccccc2)c1-c1ccccc1)Cn1c2ccc(Cl)cc2c2cc(Cl)ccc21 (configuration not stated) | 99.7 | 589 | 21200
COC(=O)C1=C(C)NC2=C(C(=O)CC(c3ccccc3Cl)C2)C1c1ccc(OC)c(OC)c1 (configuration not stated) | 478 | 1290 | > 100000
O=C(Nc1ccc(OC(F)(F)F)cc1)c1cnn2c1NC(c1cccs1)CC2C(F)(F)F (configuration not stated) | 241 | 492 | > 50000
CCc1cc2c(NCCN3CCCCC3)ncnc2s1 | 466 | 1320 | > 96100
Cc1ccc(O)c(NC(=O)c2cnn3c(C(F)(F)F)cc(-c4ccccc4)nc23)c1 | 472 | 1820 | > 100000
C#CC[N+]1(CC#Cc2cccc3ccccc23)CCCCC1 | 484 | 973 | > 100000
